# Several values for one entry are separate records, joined by “and”; a condition that tells them apart may be missing. Equal values may be shown once.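 How tested: cells in 96-well plates exposed to compound for 48 hours at five concentrations. Here, GI50 denotes the concentration required for 50% inhibition of growth. Definition used: TGI = concentration required for complete inhibition of growth.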
# Tests used:
# Test in all cases: NCI tumour cell line growth inhibition, 48 h
# U251 CNS = tested on: U251 CNS
# A498 renal = tested on: A498 renal
# SF-268 CNS = tested on: SF-268 CNS
# CCRF-CEM leukemia = tested on: CCRF-CEM leukemia
# K-562 leukemia = tested on: K-562 leukemia
# NCI-H460 lung = tested on: NCI-H460 lung
# HOP-62 NSCLC = tested on: HOP-62 NSCLC
# OVCAR-4 ovarian = tested on: OVCAR-4 ovarian
# SK-MEL-2 melanoma = tested on: SK-MEL-2 melanoma
# NCI/ADR-RES ovarian = tested on: NCI/ADR-RES ovarian
SMILES,GI50 (U251 CNS),TGI (U251 CNS),GI50 (A498 renal),TGI (A498 renal),GI50 (SF-268 CNS),TGI (SF-268 CNS),GI50 (CCRF-CEM leukemia),TGI (CCRF-CEM leukemia),GI50 (K-562 leukemia),TGI (K-562 leukemia),GI50 (NCI-H460 lung),TGI (NCI-H460 lung),GI50 (HOP-62 NSCLC),TGI (HOP-62 NSCLC),GI50 (OVCAR-4 ovarian),TGI (OVCAR-4 ovarian),GI50 (SK-MEL-2 melanoma),TGI (SK-MEL-2 melanoma),GI50 (NCI/ADR-RES ovarian),TGI (NCI/ADR-RES ovarian)
O=P(CCCCP(=O)(c1ccccc1)c1ccccc1)(c1ccccc1)c1ccccc1.[Cl][Sn]([Cl])([c]1ccccc1)[c]1ccccc1,2 µM,4.77 µM,2 µM,3.76 µM,1.75 µM,4.05 µM,0.224 µM,2.39 µM,0.444 µM,> 100 µM,6.51 µM,15.9 µM,0.462 µM,2.67 µM,1.54 µM,3 µM,1.74 µM,3.39 µM,2.96 µM,10.8 µM
COc1cc(/C=C/C(=O)c2c(C)nc3ccccc3c2/C=C/c2ccc(C)cc2)cc(OC)c1OC,1.73 µM,3.57 µM,2 µM,4.87 µM,2.21 µM,6.42 µM,2.83 µM,> 100 µM,2.75 µM,> 100 µM,2.06 µM,5.09 µM,3.1 µM,9.94 µM,5.62 µM,52.9 µM,2.11 µM,5.05 µM,2.48 µM,7.78 µM
C=C1C(=O)O[C@H]2[C@H]1CCC(/C=N/c1ncc(Br)cc1N)=C\CC[C@@]1(C)O[C@@H]21,5.06 µM,18.1 µM,4.82 µM,17.5 µM,2.86 µM,11.1 µM,0.429 µM,10.8 µM,2.11 µM,> 100 µM,5.81 µM,22.3 µM,10.8 µM,24 µM,2.43 µM,11.6 µM,1.96 µM,4.87 µM,3.11 µM,21.9 µM
CCN1Cc2c(ccc(F)c2C#N)O[C@@H](C)CNC(=O)c2c(N)nn3ccc1nc23,5.34 µM,32.4 µM,0.712 µM,3.9 µM,3.26 µM,20.3 µM,3.74 µM,> 100 µM,0.175 µM,> 100 µM,2.42 µM,28.9 µM,2.76 µM,20.1 µM,8.44 µM,> 100 µM,1.72 µM,5.22 µM,6.03 µM,56.3 µM
COc1cccc(OCCCN)c1-c1cc(Nc2cnc(C#N)cn2)n[nH]1,0.0759 µM and 0.0569 µM,14.4 µM,0.00476 µM,0.23 µM and < 0.0269 µM,0.0871 µM and 0.0754 µM,13.2 µM,,> 73 µM,0.00444 µM,12.8 µM,0.0487 µM and 0.0436 µM,12.6 µM,0.0136 µM and 0.0303 µM,13 µM,0.00793 µM and < 0.0249 µM,14.9 µM,0.00476 µM,0.0644 µM,0.071 µM and 0.054 µM,17.3 µM
O=c1[nH]c(=O)c2cc(C3CC(O)C(CO)O3)ccc2[nH]1 (centres undefined),> 100 µM,> 100 µM,> 100 µM,> 100 µM,> 100 µM,> 100 µM,> 100 µM,> 100 µM,> 100 µM,> 100 µM,> 100 µM,> 100 µM,> 100 µM,> 100 µM,43.5 µM,> 100 µM,> 100 µM,> 100 µM,> 100 µM,> 100 µM
COc1ccccc1N1CCN(CCc2c[nH]c3cc4c(cc23)OCO4)CC1,32.2 µM,> 100 µM,16.6 µM,83 µM,35.6 µM,> 100 µM,29.8 µM,> 100 µM,24.4 µM,> 100 µM,15.5 µM,> 100 µM,28.6 µM,> 100 µM,37.7 µM,> 100 µM,21.3 µM,56.3 µM,26.4 µM,> 100 µM
CCCCCCCCCCC(C(O)c1ccccc1)N1CCCCC1 (centres undefined),1.74 µM,3.46 µM,1.92 µM,6.77 µM,1.51 µM,4.73 µM,1.97 µM,7.77 µM,2.19 µM,5.93 µM,1.84 µM,3.36 µM,1.91 µM,3.78 µM,3.66 µM,13.2 µM,2.25 µM,4.84 µM,2.99 µM,10.7 µM
C=C1C(=O)O[C@H]2[C@H](OC(C)=O)[C@@H](C)CCC/C(C)=C/CC[C@@]3(C)O[C@@H]3C[C@@H]12,,21.7 µM,,8.76 µM,,14 µM,,3.76 µM,,> 100 µM,,19.7 µM,,43.6 µM,,8.76 µM,,19.5 µM,,4 µM
